Tested on: MV-4-11 cells
Assay: Gene expression microarray analysis (Affymetrix PrimeView) and GSEA
Type: cell-based, human
Design: RFU PODN (11730768_x_at) / Fold change /veh PODN (11730768_x_at) / RFU LINC00158 (11744669_a_at) / Fold change /veh LINC00158 (11744669_a_at) / RFU DUSP10 (11751237_a_at) / Fold change /veh DUSP10 (11751237_a_at) / RFU ID3 (11757404_x_at) / Fold change /veh ID3 (11757404_x_at) / RFU PLEKHG5 (11737974_s_at) / Fold change /veh PLEKHG5 (11737974_s_at) / RFU LRRC4B (11730491_at) / Fold change /veh LRRC4B (11730491_at) / RFU GIMAP4 (11747438_a_at) / Fold change /veh GIMAP4 (11747438_a_at) / RFU KRT8 (11758183_x_at) / Fold change /veh KRT8 (11758183_x_at) / RFU CNN1 (11734310_a_at) / Fold change /veh CNN1 (11734310_a_at) / RFU VPS37D (11726825_at) / Fold change /veh VPS37D (11726825_at) / RFU C10orf10 (11716522_x_at) / Fold change /veh C10orf10 (11716522_x_at) / RFU KIR2DL2 /// KIR2DL4 /// KIR2DL5A /// KIR2DL5B /// KIR2DS1 /// KIR2DS2 /// KIR2DS3 /// KIR2DS4 /// KIR3DL3 /// KIR3DL3 /// KIR3DS1 (11738374_at) / Fold change /veh KIR2DL2 /// KIR2DL4 /// KIR2DL5A /// KIR2DL5B /// KIR2DS1 /// KIR2DS2 /// KIR2DS3 /// KIR2DS4 /// KIR3DL3 /// KIR3DL3 /// KIR3DS1 (11738374_at) / RFU C1QL1 (11718748_at) / Fold change /veh C1QL1 (11718748_at) / RFU TMPRSS4 (11747572_a_at) / Fold change /veh TMPRSS4 (11747572_a_at) / RFU HAMP (11756126_x_at) / Fold change /veh HAMP (11756126_x_at) / RFU RNFT2 (11725882_a_at) / Fold change /veh RNFT2 (11725882_a_at) / RFU NR4A2 (11747474_a_at) / Fold change /veh NR4A2 (11747474_a_at) / RFU ABCC12 (11746883_a_at) / Fold change /veh ABCC12 (11746883_a_at) / RFU TMEM136 (11760407_x_at) / Fold change /veh TMEM136 (11760407_x_at) / RFU CLDN22 /// WWC2 (11732394_at) / Fold change /veh CLDN22 /// WWC2 (11732394_at) / RFU HLA-DPB1 (11760878_x_at) / Fold change /veh HLA-DPB1 (11760878_x_at) / RFU SPINT1 (11716480_a_at) / Fold change /veh SPINT1 (11716480_a_at) / RFU GAP43 (11754022_s_at) / Fold change /veh GAP43 (11754022_s_at) / RFU A4GNT (11735810_at) / Fold change /veh A4GNT (11735810_at) / RFU PRB3 (11715151_x_at) / Fold change /veh PRB3 (11715151_x_at) / RFU TUBB4B (11761932_at) / Fold change /veh TUBB4B (11761932_at) / RFU CAPN14 (11732068_a_at) / Fold change /veh CAPN14 (11732068_a_at) / RFU TMCC2 (11721928_a_at) / Fold change /veh TMCC2 (11721928_a_at) / RFU IRGQ (11745062_a_at) / Fold change /veh IRGQ (11745062_a_at) / RFU FAM174B (11720279_a_at) / Fold change /veh FAM174B (11720279_a_at) / RFU TMPRSS4 (11748680_a_at) / Fold change /veh TMPRSS4 (11748680_a_at) / RFU FAM212B (11763350_a_at) / Fold change /veh FAM212B (11763350_a_at) / RFU PLEKHG5 (11743358_a_at) / Fold change /veh PLEKHG5 (11743358_a_at) / RFU ZSCAN30 (11745921_a_at) / Fold change /veh ZSCAN30 (11745921_a_at) / RFU CMKLR1 (11741424_a_at) / Fold change /veh CMKLR1 (11741424_a_at) / RFU LOC101060620 /// MAPK8IP1 (11723275_at) / Fold change /veh LOC101060620 /// MAPK8IP1 (11723275_at) / RFU SPTSSB (11747773_x_at) / Fold change /veh SPTSSB (11747773_x_at) / RFU PRSS12 (11739890_at) / Fold change /veh PRSS12 (11739890_at) / RFU BIN1 (11741810_x_at) / Fold change /veh BIN1 (11741810_x_at) / RFU WNT11 (11732464_a_at) / Fold change /veh WNT11 (11732464_a_at) / RFU C10orf10 (11716521_a_at) / Fold change /veh C10orf10 (11716521_a_at) / RFU C5orf56 (11738089_at) / Fold change /veh C5orf56 (11738089_at) / RFU CYB561 (11721691_x_at) / Fold change /veh CYB561 (11721691_x_at) / RFU ANKRD19P (11752326_a_at) / Fold change /veh ANKRD19P (11752326_a_at) / RFU OR2T12 /// OR2T33 /// OR2T8 (11738714_s_at) / Fold change /veh OR2T12 /// OR2T33 /// OR2T8 (11738714_s_at) / RFU VCAN (11748164_a_at) / Fold change /veh VCAN (11748164_a_at) / RFU JSRP1 (11732532_at) / Fold change /veh JSRP1 (11732532_at) / RFU KRTAP10-11 (11738290_x_at) / Fold change /veh KRTAP10-11 (11738290_x_at) / RFU MYO3A (11730013_a_at) / Fold change /veh MYO3A (11730013_a_at) / RFU EBF3 (11725865_a_at) / Fold change /veh EBF3 (11725865_a_at) / RFU CAMK2N1 (11719241_x_at) / Fold change /veh CAMK2N1 (11719241_x_at) / RFU C5orf56 (11738088_a_at) / Fold change /veh C5orf56 (11738088_a_at) / RFU OLFML3 (11715873_a_at) / Fold change /veh OLFML3 (11715873_a_at) / RFU LOC100653217 /// NTM (11731650_a_at) / Fold change /veh LOC100653217 /// NTM (11731650_a_at) / RFU MAPK11 (11762145_a_at) / Fold change /veh MAPK11 (11762145_a_at) / RFU FIZ1 (11724087_x_at) / Fold change /veh FIZ1 (11724087_x_at) / RFU OASL (11726364_x_at) / Fold change /veh OASL (11726364_x_at) / RFU SOX15 (11748057_x_at) / Fold change /veh SOX15 (11748057_x_at) / RFU CD79A (11719716_a_at) / Fold change /veh CD79A (11719716_a_at) / RFU HIST1H1D (11736915_at) / Fold change /veh HIST1H1D (11736915_at) / RFU CASKIN2 (11723855_a_at) / Fold change /veh CASKIN2 (11723855_a_at) / RFU LOC730098 (11760151_x_at) / Fold change /veh LOC730098 (11760151_x_at) / RFU OR4N2 (11742367_at) / Fold change /veh OR4N2 (11742367_at) / RFU PRRT2 (11749266_a_at) / Fold change /veh PRRT2 (11749266_a_at) / RFU SNX32 (11753110_a_at) / Fold change /veh SNX32 (11753110_a_at) / RFU CDHR5 (11726645_a_at) / Fold change /veh CDHR5 (11726645_a_at) / RFU RCAN1 (11760418_a_at) / Fold change /veh RCAN1 (11760418_a_at) / RFU FAM167A (11723789_a_at) / Fold change /veh FAM167A (11723789_a_at) / RFU FAM26E (11764081_at) / Fold change /veh FAM26E (11764081_at) / RFU ISYNA1 (11749810_s_at) / Fold change /veh ISYNA1 (11749810_s_at) / RFU ACY1 (11761880_at) / Fold change /veh ACY1 (11761880_at) / RFU 11764098_at / Fold change /veh 11764098_at / RFU SAMD14 (11745864_x_at) / Fold change /veh SAMD14 (11745864_x_at) / RFU NPB (11741838_a_at) / Fold change /veh NPB (11741838_a_at) / RFU TMPRSS6 (11731388_a_at) / Fold change /veh TMPRSS6 (11731388_a_at) / RFU KRTAP10-2 (11738614_at) / Fold change /veh KRTAP10-2 (11738614_at) / RFU ARHGAP8 /// PRR5-ARHGAP8 (11727945_x_at) / Fold change /veh ARHGAP8 /// PRR5-ARHGAP8 (11727945_x_at) / RFU KRTAP5-7 /// NADSYN1 (11734609_at) / Fold change /veh KRTAP5-7 /// NADSYN1 (11734609_at) / RFU RASL12 (11751679_a_at) / Fold change /veh RASL12 (11751679_a_at) / RFU CDKN2B (11736163_a_at) / Fold change /veh CDKN2B (11736163_a_at) / RFU PRF1 (11729649_at) / Fold change /veh PRF1 (11729649_at) / RFU, ZNF638 /// ZNF638-IT1 / Fold change vs veh, ZNF638 /// ZNF638-IT1 / RFU, PANK3 / Fold change vs veh, PANK3 / RFU, SH3YL1 / Fold change vs veh, SH3YL1 / RFU, ZEB2 / Fold change vs veh, ZEB2 / RFU, NRIP1 / Fold change vs veh, NRIP1 / RFU, PTTG1IP / Fold change vs veh, PTTG1IP / RFU, CAPN2 / Fold change vs veh, CAPN2 / RFU, MED14 / Fold change vs veh, MED14 / RFU, SNORA58 / Fold change vs veh, SNORA58 / RFU, C1orf63 / Fold change vs veh, C1orf63 / RFU, LRRFIP1 / Fold change vs veh, LRRFIP1 / RFU, NDUFAF7 / Fold change vs veh, NDUFAF7 / RFU, SLC12A2 / Fold change vs veh, SLC12A2 / RFU, IBTK / Fold change vs veh, IBTK / RFU, ESF1 / Fold change vs veh, ESF1 / Fold change vs veh, TMEM50B / RFU, TAOK1 / Fold change vs veh, TAOK1 / RFU, ACBD3 / Fold change vs veh, ACBD3 / RFU, TMA16 / Fold change vs veh, TMA16 / RFU, RWDD3 / Fold change vs veh, RWDD3 / RFU, BCAT1 / Fold change vs veh, BCAT1 / RFU, EDEM3 / Fold change vs veh, EDEM3 / RFU, TMEM33 / Fold change vs veh, TMEM33 / RFU, WDR75 / Fold change vs veh, WDR75 / RFU, AHCTF1 / Fold change vs veh, AHCTF1 / RFU, TFRC / Fold change vs veh, TFRC / RFU, ZDHHC17 / Fold change vs veh, ZDHHC17 / RFU, NOM1 / Fold change vs veh, NOM1 / RFU, ARL8B / Fold change vs veh, ARL8B / RFU, ZBTB11 / Fold change vs veh, ZBTB11 / RFU, TAMM41 / Fold change vs veh, TAMM41 / RFU, KIAA1704 /// LOC100996395 / Fold change vs veh, KIAA1704 /// LOC100996395 / RFU, ING1 / Fold change vs veh, ING1 / RFU, TRMT61B / Fold change vs veh, TRMT61B / RFU, FUBP3 / Fold change vs veh, FUBP3 / RFU, TP53 / Fold change vs veh, TP53 / RFU, TNKS2 / Fold change vs veh, TNKS2 / RFU, ZFP14 / Fold change vs veh, ZFP14 / RFU, ACTR2 / Fold change vs veh, ACTR2 / RFU, PPP3R1 / Fold change vs veh, PPP3R1 / RFU, PIK3R1 / Fold change vs veh, PIK3R1 / RFU, HNRNPA1 / Fold change vs veh, HNRNPA1 / RFU, RNF170 / Fold change vs veh, RNF170 / RFU, ZNF28 / Fold change vs veh, ZNF28 / RFU, RNGTT / Fold change vs veh, RNGTT / RFU, OGT / Fold change vs veh, OGT / RFU, BRD1 / Fold change vs veh, BRD1 / RFU, MARS / Fold change vs veh, MARS / RFU, ZNF655 / Fold change vs veh, ZNF655 / RFU, FAHD1 / Fold change vs veh, FAHD1 / RFU, BDP1 / Fold change vs veh, BDP1 / RFU, LRRCC1 / Fold change vs veh, LRRCC1 / RFU, ARID1A / Fold change vs veh, ARID1A / RFU, ZNF146 / Fold change vs veh, ZNF146 / RFU, ZNF330 / Fold change vs veh, ZNF330 / RFU, GPN3 / Fold change vs veh, GPN3 / RFU, C9orf123 / Fold change vs veh, C9orf123 / RFU, N4BP2L2 / Fold change vs veh, N4BP2L2 / RFU, ARFIP1 / Fold change vs veh, ARFIP1 / RFU, FAM179B / Fold change vs veh, FAM179B / RFU, BCL10 / Fold change vs veh, BCL10 / RFU, UHRF1BP1L / Fold change vs veh, UHRF1BP1L / RFU, BET1 / Fold change vs veh, BET1 / RFU, CNOT2 / Fold change vs veh, CNOT2 / RFU, ZNF268 / Fold change vs veh, ZNF268 / Fold change vs veh, ZNF507 / RFU, DGCR2 / Fold change vs veh, DGCR2 / RFU, WDSUB1 / Fold change vs veh, WDSUB1 / Fold change vs veh, HSP90B1 /// MIR3652 / RFU, ADSS / Fold change vs veh, ADSS / RFU, GK / Fold change vs veh, GK / RFU, ZNF148 / Fold change vs veh, ZNF148 / RFU, TAF9 / Fold change vs veh, TAF9 / RFU, SLC1A5 / Fold change vs veh, SLC1A5 / RFU, SLMO2 / Fold change vs veh, SLMO2 / RFU, ABCC4 / Fold change vs veh, ABCC4 / RFU, LOC101060439 /// RAP1B / Fold change vs veh, LOC101060439 /// RAP1B / RFU, RFX7 / Fold change vs veh, RFX7 / RFU, GTPBP10 / Fold change vs veh, GTPBP10 / RFU, CNEP1R1 / Fold change vs veh, CNEP1R1 / RFU, BIVM-ERCC5 /// ERCC5 / Fold change vs veh, BIVM-ERCC5 /// ERCC5 / RFU, ILF3 / Fold change vs veh, ILF3 / RFU 11762660_at / Fold change /veh 11762660_at / RFU VCAN (11757783_s_at) / Fold change /veh VCAN (11757783_s_at) / RFU DDX43 (11728927_at) / Fold change /veh DDX43 (11728927_at) / RFU KRT8 (11758188_x_at) / Fold change /veh KRT8 (11758188_x_at) / RFU NKD1 (11759106_at) / Fold change /veh NKD1 (11759106_at) / RFU SRD5A1 (11742802_a_at) / Fold change /veh SRD5A1 (11742802_a_at) / RFU TPSAB1 /// TPSB2 (11721975_s_at) / Fold change /veh TPSAB1 /// TPSB2 (11721975_s_at) / RFU GSTM3 (11746129_a_at) / Fold change /veh GSTM3 (11746129_a_at) / RFU IL23R (11737362_x_at) / Fold change /veh IL23R (11737362_x_at) / RFU TMEM51 (11727254_a_at) / Fold change /veh TMEM51 (11727254_a_at) / RFU PIWIL2 (11732686_x_at) / Fold change /veh PIWIL2 (11732686_x_at) / RFU ORM1 (11744905_x_at) / Fold change /veh ORM1 (11744905_x_at) / RFU CCDC152 (11743942_at) / Fold change /veh CCDC152 (11743942_at) / RFU ECM1 (11717891_a_at) / Fold change /veh ECM1 (11717891_a_at) / RFU IL23R (11748794_a_at) / Fold change /veh IL23R (11748794_a_at) / RFU TNFAIP8L3 (11732012_x_at) / Fold change /veh TNFAIP8L3 (11732012_x_at) / RFU MBOAT4 (11741988_at) / Fold change /veh MBOAT4 (11741988_at) / RFU 11764193_at / Fold change /veh 11764193_at / RFU TMEM53 (11763286_at) / Fold change /veh TMEM53 (11763286_at) / RFU MAGEB2 (11727129_at) / Fold change /veh MAGEB2 (11727129_at) / RFU TMEM200A (11744735_a_at) / Fold change /veh TMEM200A (11744735_a_at) / RFU CCDC152 (11751479_a_at) / Fold change /veh CCDC152 (11751479_a_at) / RFU FAM211A (11726209_a_at) / Fold change /veh FAM211A (11726209_a_at) / RFU RGS16 (11746705_a_at) / Fold change /veh RGS16 (11746705_a_at) / RFU VCAN (11755009_s_at) / Fold change /veh VCAN (11755009_s_at) / RFU RHOB (11743442_s_at) / Fold change /veh RHOB (11743442_s_at) / RFU RGS16 (11720943_a_at) / Fold change /veh RGS16 (11720943_a_at) / RFU RGS16 (11720944_at) / Fold change /veh RGS16 (11720944_at) / RFU, VPS4B / Fold change vs veh, VPS4B / RFU, CREB1 / Fold change vs veh, CREB1 / RFU, DNAJC13 / Fold change vs veh, DNAJC13 / RFU, GNAQ / Fold change vs veh, GNAQ / RFU, CDK5R1 / Fold change vs veh, CDK5R1 / RFU, ZRANB3 / Fold change vs veh, ZRANB3 / RFU, CUL4A / Fold change vs veh, CUL4A / RFU, CCNY / Fold change vs veh, CCNY / RFU, UFL1 / Fold change vs veh, UFL1 / RFU, COG3 / Fold change vs veh, COG3 / RFU, DIAPH2 / Fold change vs veh, DIAPH2 / RFU, SKA2 / Fold change vs veh, SKA2 / RFU, AFF3 / Fold change vs veh, AFF3 / RFU, LMF1 / Fold change vs veh, LMF1 / RFU, IPO11 / Fold change vs veh, IPO11 / RFU, DFFB / Fold change vs veh, DFFB / RFU, FOXP1 / Fold change vs veh, FOXP1 / RFU, CARD8 / Fold change vs veh, CARD8 / RFU, STRN3 / Fold change vs veh, STRN3 / RFU, ADK / Fold change vs veh, ADK / RFU, RASSF2 / Fold change vs veh, RASSF2 / RFU, WIPF1 / Fold change vs veh, WIPF1 / RFU, LARP1B / Fold change vs veh, LARP1B / RFU, RASA1 / Fold change vs veh, RASA1 / RFU, RB1 / Fold change vs veh, RB1 / RFU, PPFIA1 / Fold change vs veh, PPFIA1 / RFU, MAT2A / Fold change vs veh, MAT2A / RFU, CCT5 / Fold change vs veh, CCT5 / RFU, WDR92 / Fold change vs veh, WDR92 / RFU, CUX1 / Fold change vs veh, CUX1 / RFU, TTC7A / Fold change vs veh, TTC7A / RFU, TMEM135 / Fold change vs veh, TMEM135 / RFU, DEPTOR / Fold change vs veh, DEPTOR / RFU, CPM / Fold change vs veh, CPM / RFU, DNAJB6 / Fold change vs veh, DNAJB6 / RFU, CACNA2D3 / Fold change vs veh, CACNA2D3 / RFU, DTX4 / Fold change vs veh, DTX4 / RFU, TFCP2 / Fold change vs veh, TFCP2 / RFU, GMCL1 /// GMCL1P1 / Fold change vs veh, GMCL1 /// GMCL1P1 / RFU, AEBP2 / Fold change vs veh, AEBP2 / RFU, SNHG1 /// SNORD22 /// SNORD25 /// SNORD26 /// SNORD27 /// SNORD28 /// SNORD29 /// SNORD31 / Fold change vs veh, SNHG1 /// SNORD22 /// SNORD25 /// SNORD26 /// SNORD27 /// SNORD28 /// SNORD29 /// SNORD31 / Fold change (Aza/veh), C12orf56 (ProbeSet 11735607_a_at) / Fold change (ACY-1035/veh), C12orf56 (ProbeSet 11735607_a_at) / Fold change (Aza/veh), FGFR1OP (ProbeSet 11751329_s_at) / Fold change (ACY-1035/veh), FGFR1OP (ProbeSet 11751329_s_at) / Fold change (Aza/veh), VPS36 (ProbeSet 11739960_a_at) / Fold change (ACY-1035/veh), VPS36 (ProbeSet 11739960_a_at) / RFU SYPL1 (11715823_x_at) / Fold change /veh SYPL1 (11715823_x_at) / RFU IGFBP7 (11715501_s_at) / Fold change /veh IGFBP7 (11715501_s_at) / RFU REEP3 (11722064_at) / Fold change /veh REEP3 (11722064_at) / RFU IGLL1 (11728026_x_at) / Fold change /veh IGLL1 (11728026_x_at): dose or concentration left out as unconfirmed
Conditions: ProbeSet 11740528_a_at; LIST D

`Nc1ccc(-c2cccs2)cc1NC(=O)c1ccc2c(c1)cc(C1CC1)n2CCN1CCOCC1` [ACY-1035] was tested, and the “Fold change vs veh, AFF3” value was 0.95.
